Data set [1] has as its system melanoma and glioma cell lines. Put plainly: MTS assay, potentiation of cytotoxic agents (other inhibitors, data not shown). The settings on record: relatively non-toxic inhibitor concentration. Type of data set: cell-based. Here is the method:
(§1) MeWo, SKMel and MM418 melanoma cancer cell line were grown in RPMI culture medium (supplemented with penicillin 0.06 g l^−1, streptomycin 0.1 g l^−1 pH 7.0, 10% foetal bovine serum (FBS, PAA Cell Culture Company, Yeovil, Somerset, UK). U89 MG and SNB-19 glioma cell lines were grown in DMEM (supplemented with penicillin 0.06 g l^−1, streptomycin 0.1 g l^−1 pH 7.0, 10% foetal bovine serum (FBS, PAA Cell Culture Company). HUVEC endothelial cells were grown in a special media (199 Media+HAMS F12), and supplemented with 20% heat-inactivated foetal calf serum, 1% Hepes, 1% Glutamine, 12.5 μg Human EGF, 625 ng of Human bFGF, 3750 units of Heparin, penicillin 0.06 g l^−1, and streptomycin 0.1 g l^−1) Only cultures with a plating efficiency of over 70% were used for analyses.
(§2) To evaluate intrinsic cytotoxicity and to evaluate the potentiation of toxicity of cytotoxic agents by APE1 inhibitors, MTS assays were performed as per the manufacturer's recommendation (Promega, Southampton, UK). Briefly, 2000 cells per well (in 200 μl of medium) were seeded into a 96-well plate. For HUVEC cells, 5 μl of 2% type 2 gelatine (Sigma) was added to the wells and the plates were preincubated for 20 min at 37°C before seeding of cells. For intrinsic cytotoxicity assessments, cells were incubated with varying concentrations of APE1 inhibitors and the MTS assay was performed on day 5. […] Non-radioactive cell proliferation assay was conducted as described previously.
A general note: Tetrazolium assays rely on reduction of a dye to a coloured formazan, in cell work by metabolically active cells.

Data set [2] relates to melanoma and glioma cell lines. The experiment in a line: MTS assay, intrinsic cytotoxicity. Format: cell-based. The conditions noted are these: 120 h, MTS assay on day 5, read-out: GI50 (cell growth inhibition). Here is the method:
as §1, §2

The next data set has as its target T1, E. coli endonuclease IV (Escherichia coli, UniProt P0A6C1).
T1 construct: purchased Trevigen
The experiment in a line: Fluorescence-based endonuclease IV cleavage assay (counter-screen). The conditions noted are these: tested at 100 μM. Format: biochemical. Here is the method:
(§3) A fluorescence-based AP site cleavage assay was performed as described previously with slight modifications ([Madhusudan et al, 2005]). Briefly, APE1 (50 nM) (New England Biolabs) was incubated in a buffer system consisting of 50 mM Tris-HCl, pH 8.0, 1 mM MgCl2, 50 mM NaCl, 2 mM DTT at 37°C for 10 min. 5′-F-GCCCCCXGGGGACGTACGATATCCCGCTCC-3′ and its complementary Q-labelled oligonucleotide (see above) were annealed in a buffer containing 100 μM Tris-HCl, 50 mM NaCl and 1 μM EDTA. AP-site cleavage was initiated by addition of the annealed substrate (25 nM) to the reaction mix. Fluorescence readings were taken at 5 min intervals during 30 min incubation at 37°C using an Envision Multilabel reader from Perkins Elmer (Cambridge, UK) with a 495 nm excitation and a 512 nm emission filter. If the DNA is cleaved at the abasic site at position 7 from the 5′-end by APE1, the 6-mer fluorescein-containing product will dissociate from its complement by thermal melting. As a result, the quenching effect of the 3′ dabcyl (which absorbs fluorescein fluorescence when in close proximity) is lost, and APE1 activity is measured indirectly as an increase in fluorescence signal (Figure 2A). Similar assays were developed for monitoring the AP endonuclease activity of endonuclease IV using a buffering system containing 10 mM HEPES-KOH, pH 7.4, 100 mM KCl and 60 ng of endonuclease IV (Trevigen, Abingdon, UK). The final DMSO concentration was maintained at 1.2% in all assays.
(§4) APE1 was incubated with the candidate inhibitors at 100 μM (final DMSO concentration, 1.2%) before initiating the AP site cleavage assay described in the previous section. […] In addition, screening of potential inhibitors for their specificity (at 100 μM concentration) was performed using endonuclease IV cleavage assays.
In general terms: The purpose of a counterscreen is to sort out artefacts and off-target activity.

Data set [3] has as its target T2, AP endonuclease activity of HeLa whole-cell extracts (WCE) (Homo sapiens, UniProt P27695).
T2 construct: incubated at 100 μM concentrations with 30 ng of HeLa WCE at room temperature; endogenous in cells; host or cells: HeLa whole-cell extract
The experiment in a line: Whole-cell extract AP-site cleavage assay. The conditions noted are these: for inhibition at 100 µM: read-out: WCE Inhibition (whole-cell extracts AP site cleavage inhibition); for inhibition of AP site cleavage in WCE assay: HeLa WCE. Type of data set: biochemical. Here is the method:
The supernatant WCE was retained, the protein concentration determined using the Bio-Rad Bradford reagent, and aliquots were stored at −80°C. AP endonuclease activity assays using 18-mer radiolabelled oligonucleotide substrates (see above) were performed. In brief, all potential APE1 inhibitors were incubated at 100 μM concentrations with 30 ng of HeLa WCE at room temperature for 15 min in incision buffer consisting of 50 mM Tris-HCl, pH 8, 1 mM MgCl2, 50 mM NaCl and 2 mM DTT. After incubation, 0.5 pmol ^32P-radiolabeled THF-containing 18-mer double-stranded DNA substrate was added. […] The radiolabeled substrate and product were separated on a standard polyacrylamide-denaturing gel and quantified by phosphorimager analysis.

A further data set deals with T3, Human APE1 (Homo sapiens, UniProt P27695).
T3 construct: purchased New England Biolabs
Put plainly: Fluorescence-based AP site cleavage assay. Format: biochemical. The settings on record: APE1 50 nM, wild type. Here is the method: as §3, §4
To estimate IC50 for APE1 inhibition, the ability of the compounds to inhibit APE1 at a range of concentrations (10 nM–100 μM) were evaluated in black 384-well plates. The reactions were set up as before and fluorescence intensity was measured every 5 min for 30 min following reaction initiation. Using the initial rate values from the assay, percent activity was calculated for each sample relative to a negative DMSO only control. The data was fitted to a sigmoidal dose-response model using Graphpad Prism 3.0 (GraphPad Software, La Jolla, CA, USA) and IC50 values were determined using the formula: % Activity=100/(1+10^(log[I]−log IC 50)).

The structures appear in SMILES notation. Entries after “also recorded” stand apart in the source; their conditions may differ. Where only a bound is given, the exact number is not on record here.

T3 sequence (P27695 whole entry): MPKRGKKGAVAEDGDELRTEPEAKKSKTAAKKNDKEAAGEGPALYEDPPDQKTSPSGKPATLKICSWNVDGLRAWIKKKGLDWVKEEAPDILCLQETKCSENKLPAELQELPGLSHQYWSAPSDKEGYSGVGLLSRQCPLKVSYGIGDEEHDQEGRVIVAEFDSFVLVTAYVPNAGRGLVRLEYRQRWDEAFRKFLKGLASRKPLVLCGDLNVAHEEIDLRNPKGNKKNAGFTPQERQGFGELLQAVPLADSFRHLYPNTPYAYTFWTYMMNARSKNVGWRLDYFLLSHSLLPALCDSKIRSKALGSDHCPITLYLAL
T2 sequence (P27695 whole entry): as above

As to `O=C(O)c1cc2cc(F)ccc2[nH]1` [Compound 1, 5-fluoro-1H-indole-2-carboxylic acid], in data set [1], the “potentiation of cytotoxicity of alkylating agents” value (“potentiation” for short) is on record as “not”. Further, the concentration for 50% growth inhibition (GI50) (usually the concentration that inhibits growth by half) in data set [2] is over 300 µM. Besides, the “Endo IV inhibition” value at E. coli endonuclease IV is listed as “None”. For the same compound, in data set [3] (30 ng HeLa WCE), the inhibition (usually the share of the control response that was lost under treatment) at 100 µM is under 50%. For the same compound, half-maximal inhibition on Human APE1 (IC50) required 10 µM.
Regarding `O=C(COc1ccc2ccccc2c1)Nc1ccc(O)c(-c2nc3ccccc3o2)c1` [Compound 2, N-(3-benzooxazol-2-yl-4-hydroxy-phenyl)-2-(2-naphthyloxy)acetamide], in data set [1], the “potentiation” value is “Potentiation of cytotoxicity was also demonstrated”. Also, the 50% growth inhibitory concentration (GI50) in data set [2] is 50 µM. The “Endo IV inhibition” value on E. coli endonuclease IV was “None”. In data set [3] (30 ng HeLa WCE), the inhibition at 100 µM fell in the range of 50 to 75%. Also, at Human APE1, the IC50 – broadly, the concentration needed to halve the response being measured – stood at 25 µM.
Consider `O=C(OCC(=O)N1NC(c2ccc3ccccc3c2)=CC1c1ccccc1)c1ccc([N+](=O)[O-])s1` (stereo not shown) [Compound 3, (3-(2-naphthyl)-5-phenyl-2,5-dihydropyrazol-1-yl) carbonylmethyl 5-nitrothiophene-2-carboxylate], for which the “potentiation” value in data set [1] is listed as “did not shown any potentiation”. The GI50 in data set [2] was 1 µM. Also, the “inhibition of AP site cleavage in WCE assay” value in data set [3] (100 μM) is “no activity; also recorded: did not inhibit”; in data set [3] (100 μM, listed as compound 3, 100 µM) it was “no effect”. Besides, the half-maximal inhibitory concentration (IC50) against Human APE1 turned out to be 3 µM.
Take `O=C(CCCn1c(SCC(=O)Nc2nccs2)nc2ccsc2c1=O)NCc1ccc2c(c1)OCO2` [Compound 5, N-(benzo(1,3)dioxol-5-ylmethyl)-4-(2-oxo-4-(thiazol-2-ylcarbamoylmethylsulfanyl)-9-thia-3,5-diazabicyclo(4.3.0)nona-4,7,10-trien-3-yl)-butanamide]: in data set [1], the “potentiation” value was “Potentiation of cytotoxicity was also demonstrated”. In addition, in data set [2], the GI50 is 14 µM. Moreover, the “Endo IV inhibition” value at E. coli endonuclease IV is listed as “None”. Also, in data set [3] (30 ng HeLa WCE), the inhibition at 100 µM fell in the range of 50 to 75%. Moreover, the half-inhibitory concentration (IC50) against Human APE1 stood at 12 µM.
On to `O=C(CSc1nc2ccccc2s1)CSc1nc2ccccc2s1` [Compound 6, 1,3-bis(1,3-benzothiazol-2-ylthio)acetone], for which the “potentiation” value in data set [1] is listed as “Potentiation of cytotoxicity was also demonstrated”. The 50% growth inhibitory concentration (GI50) in data set [2] is 50 µM. Moreover, the “Endo IV inhibition” value on E. coli endonuclease IV was “None”. Moreover, the “WCE Inhibition (whole-cell extracts AP site cleavage inhibition)” value in data set [3] (100 μM, 30 ng HeLa WCE) is recorded as “Strong”. The compound also showed an IC50 on Human APE1 of 3 µM.
Consider `N#CC(C(=O)c1cc2ccccc2o1)c1nc2ccccc2s1` (stereo not shown) [Compound 7, 3-benzofuran-2-yl-2-benzothiazol-2-yl-3-oxo-propanenitrile], for which the “potentiation” value in data set [1] is “did not show any potentiation”. The GI50 in data set [2] was determined as 40 µM. Moreover, the “Endo IV inhibition” value at E. coli endonuclease IV was “complete inhibition and yes”; at E. coli endonuclease IV (listed as compound 7), “blocked endonuclease IV activity”. Also, the inhibition at 100 µM in data set [3] (30 ng HeLa WCE) fell in the range of 50 to 75%. Further, it took 2 µM to reach half-maximal inhibition at Human APE1 (IC50).
